ChEMBL document CHEMBL4311954, “Synthesis, biological evaluation, and docking studies of new raloxifene sulfonate or sulfamate derivatives as inhibitors of nucleotide pyrophosphatase/phosphodiesterase” (Eur J Med Chem, 2019)
Where a name gives a salt, the structure may show the parent alone.

Legend:
[1] = target: T1, Ectonucleotide pyrophosphatase/phosphodiesterase family member 1 (Homo sapiens) (UniProt P22413); assay: Inhibition of human NPP1 expressed in COS-7 cell membranes assessed as reduction in p-nitrophenol production at 100 uM using pNP-TMP as substrate preincubated with enzyme for 15 mins followed by substrate addition and measured after 35 mins relative to control
T1 sequence (whole entry): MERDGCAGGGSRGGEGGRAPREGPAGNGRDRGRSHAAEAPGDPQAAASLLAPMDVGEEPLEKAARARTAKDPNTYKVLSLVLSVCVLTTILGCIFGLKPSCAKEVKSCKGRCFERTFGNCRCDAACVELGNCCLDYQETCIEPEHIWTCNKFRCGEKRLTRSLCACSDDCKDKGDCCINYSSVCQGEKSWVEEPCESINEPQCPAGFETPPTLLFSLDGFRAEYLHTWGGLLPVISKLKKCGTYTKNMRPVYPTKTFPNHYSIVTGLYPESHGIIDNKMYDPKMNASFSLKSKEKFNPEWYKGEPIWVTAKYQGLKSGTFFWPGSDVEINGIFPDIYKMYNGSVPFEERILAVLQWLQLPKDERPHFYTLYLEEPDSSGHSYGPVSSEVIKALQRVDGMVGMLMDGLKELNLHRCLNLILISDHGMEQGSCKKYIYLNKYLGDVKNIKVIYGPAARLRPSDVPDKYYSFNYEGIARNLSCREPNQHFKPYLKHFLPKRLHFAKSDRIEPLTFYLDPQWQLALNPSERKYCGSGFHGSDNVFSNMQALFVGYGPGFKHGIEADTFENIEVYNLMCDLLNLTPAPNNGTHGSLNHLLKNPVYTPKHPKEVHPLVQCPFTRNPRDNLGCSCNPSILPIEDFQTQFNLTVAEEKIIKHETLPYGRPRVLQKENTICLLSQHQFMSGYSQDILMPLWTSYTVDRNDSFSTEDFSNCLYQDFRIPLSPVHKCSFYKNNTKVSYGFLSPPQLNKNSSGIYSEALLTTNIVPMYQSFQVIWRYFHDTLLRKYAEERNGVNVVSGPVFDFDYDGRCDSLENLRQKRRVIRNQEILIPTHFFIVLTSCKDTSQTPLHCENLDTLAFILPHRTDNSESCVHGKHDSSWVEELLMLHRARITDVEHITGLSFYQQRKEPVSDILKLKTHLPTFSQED

[2] = target: T2, Ectonucleotide pyrophosphatase/phosphodiesterase family member 3 (Homo sapiens, UniProt O14638); assay: Inhibition of human NPP3 expressed in COS-7 cell membranes assessed as reduction in p-nitrophenol production using pNP-TMP as substrate preincubated with enzyme for 15 mins followed by substrate addition and measured after 35 mins
T2 sequence (O14638 whole entry): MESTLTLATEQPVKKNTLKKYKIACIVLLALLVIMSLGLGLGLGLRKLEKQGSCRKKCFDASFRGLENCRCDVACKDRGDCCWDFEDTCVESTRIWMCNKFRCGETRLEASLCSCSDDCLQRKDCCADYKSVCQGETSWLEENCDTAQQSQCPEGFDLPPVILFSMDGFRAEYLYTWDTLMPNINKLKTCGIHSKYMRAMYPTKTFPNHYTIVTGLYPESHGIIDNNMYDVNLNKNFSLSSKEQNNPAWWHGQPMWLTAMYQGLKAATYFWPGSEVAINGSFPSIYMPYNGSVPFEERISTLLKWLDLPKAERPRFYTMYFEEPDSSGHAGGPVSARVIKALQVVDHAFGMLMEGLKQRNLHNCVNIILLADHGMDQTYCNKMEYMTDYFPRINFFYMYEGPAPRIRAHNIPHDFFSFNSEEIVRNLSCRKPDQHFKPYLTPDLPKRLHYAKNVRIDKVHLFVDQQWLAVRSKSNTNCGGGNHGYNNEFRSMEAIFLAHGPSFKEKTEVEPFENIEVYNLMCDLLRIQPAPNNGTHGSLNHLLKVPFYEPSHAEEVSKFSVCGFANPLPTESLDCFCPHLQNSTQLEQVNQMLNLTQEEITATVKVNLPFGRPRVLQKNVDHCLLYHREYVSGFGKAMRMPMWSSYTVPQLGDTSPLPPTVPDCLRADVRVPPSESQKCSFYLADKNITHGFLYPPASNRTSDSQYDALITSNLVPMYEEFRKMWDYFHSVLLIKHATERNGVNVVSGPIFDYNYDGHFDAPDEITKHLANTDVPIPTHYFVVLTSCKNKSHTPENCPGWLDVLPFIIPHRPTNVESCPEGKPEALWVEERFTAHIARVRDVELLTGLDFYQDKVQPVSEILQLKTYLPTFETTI

A549 [3] = assay: Antiproliferative activity against human A549 cells assessed as cell viability at 10 uM after 72 hrs by MTT assay relative to control; assay type: functional; settings: A549, 72 h, read-out: Activity
MCF7 [4] = assay: Antiproliferative activity against human MCF7 cells assessed as cell viability at 10 uM after 72 hrs by MTT assay relative to control; assay type: functional; settings: MCF7, 72 h, read-out: Activity
HT-29 [5] = assay: Antiproliferative activity against human HT-29 cells assessed as cell viability at 10 uM after 72 hrs by MTT assay relative to control; assay type: functional; settings: HT-29, 72 h, read-out: Activity
[6] = target: T3, Ectonucleotide pyrophosphatase/phosphodiesterase family member 1 (Homo sapiens, UniProt P22413); assay: Inhibition of human NPP1 expressed in COS-7 cell membranes assessed as reduction in p-nitrophenol production using pNP-TMP as substrate preincubated with enzyme for 15 mins followed by substrate addition and measured after 35 mins
T3 sequence (P22413 whole entry): T1 sequence (whole entry)

A549 [7] = assay: Antiproliferative activity against human A549 cells assessed as reduction in cell viability after 48 hrs by MTT assay; assay type: functional, cell-based; settings: A549, 48 h
MCF7 [8] = assay: Antiproliferative activity against human MCF7 cells assessed as reduction in cell viability after 48 hrs by MTT assay; assay type: functional, cell-based; settings: MCF7, 48 h
HT-29 [9] = assay: Antiproliferative activity against human HT-29 cells assessed as reduction in cell viability after 48 hrs by MTT assay; assay type: functional, cell-based; settings: HT-29, 48 h
[10] = Cytotoxicity against human F180 cells assessed as reduction in cell viability after 48 hrs by MTT assay; assay type: cell-based; settings: F180, 48 h
[11] = target: T4, Ectonucleotide pyrophosphatase/phosphodiesterase family member 3 (Homo sapiens) (UniProt O14638); assay: Inhibition of human NPP3 expressed in COS-7 cell membranes assessed as reduction in p-nitrophenol production at 100 uM using pNP-TMP as substrate preincubated with enzyme for 15 mins followed by substrate addition and measured after 35 mins relative to control
T4 sequence (whole entry): T2 sequence (O14638 whole entry)

[12] = Selectivity index, ratio of IC50 for human F180 cells to IC50 for human HT-29 cells

Structure (SMILES)	inhibition [1] [%]	IC50 [2] [µM]	viability at 10 µM (A549 [3]) [%]	viability at 10 µM (MCF7 [4]) [%]	viability at 10 µM (HT-29 [5]) [%]	IC50 [6] [µM]	IC50 (A549 [7]) [µM]	IC50 (MCF7 [8]) [µM]	IC50 (HT-29 [9]) [µM]	IC50 [10] [µM]	inhibition [11] [%]	Ratio IC50 [12]
O=C(c1ccc(OCCN2CCCCC2)cc1)c1c(-c2ccc(OS(=O)(=O)C3CCCCC3)cc2)sc2cc(OS(=O)(=O)C3CCCCC3)ccc12	30	0.49	104	136	109							
O=C(c1ccc(OCCN2CCCCC2)cc1)c1c(-c2ccc(OS(=O)(=O)c3ccc(C(F)(F)F)cc3)cc2)sc2cc(OS(=O)(=O)c3ccc(C(F)(F)F)cc3)ccc12		0.23	67.7	41	17.4	4.01	> 15	> 15	4	> 15		
O=C(c1ccc(OCCN2CCCCC2)cc1)c1c(-c2ccc(O)cc2)sc2cc(O)ccc12 [RALOXIFENE HYDROCHLORIDE]			87	77.7	107		> 15	> 15	> 15	> 15		
CN(C)S(=O)(=O)Oc1ccc(-c2sc3cc(OS(=O)(=O)N(C)C)ccc3c2C(=O)c2ccc(OCCN3CCCCC3)cc2)cc1			91.8	58	25	4.24	> 15	3.4	1.5	14	43.7	
Cc1ccc(S(=O)(=O)Oc2ccc(-c3sc4cc(OS(=O)(=O)c5ccc(C)cc5)ccc4c3C(=O)c3ccc(OCCN4CCCCC4)cc3)cc2)cc1			95.2	116	72.4	0.45					38.5	
CNS(=O)(=O)Oc1ccc(-c2sc3cc(OS(=O)(=O)NC)ccc3c2C(=O)c2ccc(OCCN3CCCCC3)cc2)cc1	36	1.55	58.9	37.2	11.5		13	6	1.7	> 15		
COc1ccc(S(=O)(=O)Oc2ccc(-c3sc4cc(OS(=O)(=O)c5ccc(OC)cc5)ccc4c3C(=O)c3ccc(OCCN4CCCCC4)cc3)cc2)cc1		1.24	99.4	127	89.3	0.42						
O=C(c1ccc(OCCN2CCCCC2)cc1)c1c(-c2ccc(OS(=O)(=O)c3cccc4cccnc34)cc2)sc2cc(OS(=O)(=O)c3cccc4cccnc34)ccc12	28.7		99.2	129	110						42.5	
CCS(=O)(=O)Oc1ccc(-c2sc3cc(OS(=O)(=O)CC)ccc3c2C(=O)c2ccc(OCCN3CCCCC3)cc2)cc1	35.1	1.51	90.2	118	62.2							
O=C(c1ccc(OCCN2CCCCC2)cc1)c1c(-c2ccc(OS(=O)(=O)c3ccc(F)cc3)cc2)sc2cc(OS(=O)(=O)c3ccc(F)cc3)ccc12		1.81	105	115	108	8.88						
CC(C)(C)c1ccc(S(=O)(=O)Oc2ccc(-c3sc4cc(OS(=O)(=O)c5ccc(C(C)(C)C)cc5)ccc4c3C(=O)c3ccc(OCCN4CCCCC4)cc3)cc2)cc1		0.71	7.3	12.1	9.9	0.29	6.7	3.2	1.4	11.8		8.43
